Patent US11304919B2, “Utilization of cilastatin in inhibiting renal disorder” (NIIGATA UNIVERSITY, priority 2018, dated 2022)

Key:
megalin [1] = assay: EPMA mapping of iodine in kidney tissue of kidney-specific megalin complete knockout (NDRG1-Cre) and control mice (Reference Example 2); settings: kidney-specific megalin complete knockout mice; 200 μL tail vein; kidneys extracted 3 h later; FIGS. 4-9
Excerpt: EPMA is an electron microprobe (EMP) instrument that analyzes the constituent elements of a substance of interest by irradiating electron beams onto the substance and measuring the wavelengths and intensities of characteristic X-rays unique to the different elements, which are generated by the electron beams. […] The behaviors of contrast media per se can be verified by analyzing iodine content distribution.
In order to use right kidneys for analysis, 3 mm-thick sections containing a kidney pedicle portion were prepared, embedded in OCT compound, freeze-fixed with liquid nitrogen, and stored at −80° C.
Next, the stored sections were sliced at a thickness of 4 μm using a cryostat (CM1850, Leica Biosystems), and the obtained slices were attached onto carbon-coated grids and freeze-dried overnight.
378 μm^2 cortical areas in the prepared tissue slices were analyzed by EPMA (EPMA 1610, Shimadzu Corporation, Kyoto, Japan) to map iodine present in the structures of the contrast media.

[2] = tested on: protein of interest (carrier; megalin ligand); assay: Binding of contrast solid-phased magnetic beads to carrier protein, WB (Reference Example 5); settings: 0/3/10 mM iomeprol solid-phased beads; protein 25 ng/μL; 4° C., 4 h; FIG. 21
Excerpt: A substance that can serve as a carrier for an iodinated contrast medium was selected by reference to the information reported on megalin ligands. To be specific, one protein known to be filtered at the glomeruli and resorbed by renal proximal tubular epithelial cells via megalin was selected among megalin ligands.
The binding specificity between this protein and an iodinated contrast medium was verified using contrast solid-phased magnetic beads by following the procedures described below.
Five milligrams each of the 0 mM/3 mM/10 mM contrast solid-phased beads prepared in Reference Example 4 were dispersed and washed according to the procedure described in Reference Example 4. Next, the protein of interest (produced by LifeSpan BioSciences, Inc.) was dissolved in 100 mM KCL to prepare a 25 ng/μL solution. The above-washed beads were each dispersed in 200 μL of the prepared solution and reacted at 4° C. for 4 hours. Then, heat-eluted samples were prepared by following the procedure described in Reference Example 4.
The procedures for sample electrophoresis and WB analysis were performed in accordance with Reference Example 4. An antibody against the protein of interest (a polyclonal antibody produced by Bioss Inc.) was added at a concentration of 2 μg/mL and reacted at room temperature for 2 hours.

megalin [3] = assay: Contrast nephropathy model in kidney-specific megalin partial knockout mice (apoE-Cre), megalin/KIM-1 immunostaining (Reference Example 3); format: in vivo, mouse; settings: 200 μL iomeprol, 48 h after administration, FIGS. 10A-10C
Experimental: Similar murine models of contrast nephropathy to those of Reference Example 1 were constructed using kidney-specific megalin partial knockout mice (apoE-Cre), and were used to verify the involvement of megalin in the onset of contrast-induced renal injuries.
Left kidneys were extracted from the apoE-Cre knockout mice, and 14 days later, right kidney pedicles were ligated for 30 minutes. Thereafter, reperfusion was carried out. After 24 hours from the start of reperfusion, 200 μL of iomeprol or normal saline was administered from the tail vein.
The stained slices were mounted with Slow Fade Gold Antifade Reagent (Life Technologies) and observed using a fluorescence microscopy (BZ-9000, Keyence). In particular, it was verified whether megalin and KIM-1 were expressed in the S1 and S2 segments of renal proximal tubules.

Q: What does the source list for `CN(C(=O)CO)c1c(I)c(C(=O)NCC(O)CO)c(I)c(C(=O)NCC(O)CO)c1I` (stereo not drawn) [iomeprol]?
A: iodine contents detected in kidney slices by EPMA, NDRG1-Cre mice versus control mice (megalin [1]): lower; binding of protein of interest to contrast solid phased on beads (WB band, heat-eluted samples) [2]: bound in a specific manner; KIM-1 expression relative to megalin expression in renal proximal tubular epithelial cells (megalin [3]): expressed in a specific manner in the renal proximal tubular epithelial cells with expression of megalin
